Data taken from US7033593B2, “Immunogen comprising an HIV envelope protein, a ligand and H2 peptide” (priority 2000, dated 2006).
Entries after “also recorded” stand apart in the source; their conditions may differ. Like-named read-outs stand apart in the source and are kept apart here. No end group written: not given here.

Legend:
[1] = target: sCD4 ligated gp120 in the context of membrane bound envelope; settings: Hoffman et al 2000; read-out: affinity; cited from earlier work
[2] = tested on: sCD4-gp140 (HIV 89.6 gp140); assay: SPR binding of HR-2 peptides to sCD4-gp140 complex; settings: SPR
Method: (§1) SPR biosensor measurements were determined on a BIACORE 3000 (BIACORE Inc., Uppsala, Sweden) instrument. […] Binding of proteins and peptides was monitored in real-time at 25° C. and with a continuous flow of PBS, pH 7.4 at […]. Analyte (proteins and peptides) were removed and the sensor surfaces were regenerated following each cycle of binding by single or duplicate […] of regeneration solution (10 mM glycine-HCl, pH 2.5 or 10 mM NaOH).
(§2) All analyses were performed using the non-linear fit method of O'Shannessy et al. (O'Shannessy et al, Anal. Biochem. 205:132–136 (1992)) and the BIAevaluation 3.0 software (BIACORE Inc). Rate and equilibrium constants were derived from curve fitting to the Langmuir equation for a simple bimolecular interaction (A+B=AB).
(§3) A blank chip served as an in-line reference surface for subtraction of non-specific binding and bulk responses.
(§4) Surface Plasmon Resonance Biosensor Measurements. SPR biosensor measurements were determined on a BIACORE 3000 (BIACORE Inc., Uppsala, Sweden) instrument. […] A blank in-line reference surface (activated and de-activated for amine coupling) was used to subtract non-specific or bulk responses. Binding of proteins and peptides (biotinylated or free DP178, T649Q26L, DP178-scrambled) was monitored in real-time at 25° C. with a continuous flow of PBS (150 mM NaCl, 0.005% surfactant p20), pH 7.4 at 10–30 μl/min. Analyte (proteins and peptides) were removed and the sensor surfaces were regenerated following each cycle of binding by single or duplicate 5–10 μl pulses of regeneration solution (10 mM glycine-HCl, pH 2.5 or 10 mM NaOH).

[3] = target: sCD4-gp120 (HIV 89.6 gp120) (Human immunodeficiency virus type 1 group M subtype B, UniProt Q73372); format: binding
sCD4-gp120 (HIV 89.6 gp120), sequence (Q73372 32-508): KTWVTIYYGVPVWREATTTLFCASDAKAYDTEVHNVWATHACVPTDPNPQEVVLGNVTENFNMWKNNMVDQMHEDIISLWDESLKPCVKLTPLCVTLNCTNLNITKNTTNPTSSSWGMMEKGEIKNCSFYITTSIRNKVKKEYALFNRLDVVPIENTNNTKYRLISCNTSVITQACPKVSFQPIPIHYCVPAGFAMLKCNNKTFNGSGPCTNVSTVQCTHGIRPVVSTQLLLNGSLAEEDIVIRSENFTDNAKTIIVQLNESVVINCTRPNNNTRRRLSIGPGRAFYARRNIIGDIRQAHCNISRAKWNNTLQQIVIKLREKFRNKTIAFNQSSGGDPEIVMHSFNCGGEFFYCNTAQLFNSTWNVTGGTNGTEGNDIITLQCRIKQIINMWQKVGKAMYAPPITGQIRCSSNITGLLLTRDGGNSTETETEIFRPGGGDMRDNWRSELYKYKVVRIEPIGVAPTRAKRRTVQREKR

[4] = tested on: T8-gp140 (HIV 89.6 gp140); settings: SPR
T8-gp140 (HIV 89.6 gp140), sequence (Q73372 32-508): as above
T8-gp140 (HIV 89.6 gp140), sequence (Q73372 509-680): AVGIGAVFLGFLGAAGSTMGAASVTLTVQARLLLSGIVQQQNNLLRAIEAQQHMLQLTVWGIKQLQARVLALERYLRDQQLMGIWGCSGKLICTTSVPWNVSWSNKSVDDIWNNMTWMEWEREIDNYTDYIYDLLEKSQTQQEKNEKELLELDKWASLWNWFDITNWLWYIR
Method: FIG. 14A. […] FIGS. 14B and 14C. […] After stabilization of gp140 capture, either the 19b (anti-gp120 V3) or 2F5 (anti-gp41) antibodies (300 μg/ml) were injected to assess the relative amounts of gp120 and gp41 on both surfaces. FIGS. 14D–14F.
as §3, §4

[5] = target: T8-gp120 (HIV 89.6 gp120) (Human immunodeficiency virus type 1 group M subtype B, UniProt Q73372); format: binding; settings: SPR
T8-gp120 (HIV 89.6 gp120), sequence (Q73372 32-508): as the sequence (Q73372 32-508) above

A32-gp120 (89.6 gp120) = A32-gp120 (89.6 gp120) (Human immunodeficiency virus type 1 group M subtype B, UniProt Q73372); settings: DP178 pre-incubated with peptide
Description: FIGS. 31A–31F. […] Data are representative of 3 separate experiments performed. Data presented for C4-V389.6P and C4-V3MN are taken from two separate experiments. (FIG. 31F) Schematic.
The gp120 C4 region is centrally located within the CCR5 binding site in the β20–β21 strands of the gp120 bridging sheet (Wyatt et al, J. Virol. 69:5723–5733 (1995)).

[6] = tested on: HIV-1 induced syncytia formation; assay: HIV-1 induced syncytia formation; format: cell-based; settings: 50–200 μg/ml
[7] = tested on: CD4-gp140 complex (89.6 gp140 oligomers); settings: on CD4-gp140 complex
Method: FIG. 10C. CD4-gp140 complexes (indicated by arrow) were first formed by injecting soluble 89.6 gp140 oligomers over a CD4-immobilized surface. Then the CCR5 N-terminal peptide (D1) was injected to monitor its binding to CD4-gp140 complexes.
FIG. 10D. An overlay of the binding curves of CCR5 N-terminal peptide, D1, binding to 89.6 gp140 oligomers in the presence and absence of CD4. […] To ensure that all gp140 molecules were bound to CD4, cleaved gp140 proteins were captured on a CD4 immobilized sensor surface (RU=530), and soluble 89.6 gp140 proteins were directly immobilized (RU=3300) on an adjacent flow cell of the same sensor chip.
as §1, §2

[8] = target: cleaved gp140 oligomers (HIV 89.6) (Human immunodeficiency virus type 1 group M subtype B, UniProt Q73372); assay: biochemical; format: binding
cleaved gp140 oligomers (HIV 89.6), sequence (Q73372 32-681): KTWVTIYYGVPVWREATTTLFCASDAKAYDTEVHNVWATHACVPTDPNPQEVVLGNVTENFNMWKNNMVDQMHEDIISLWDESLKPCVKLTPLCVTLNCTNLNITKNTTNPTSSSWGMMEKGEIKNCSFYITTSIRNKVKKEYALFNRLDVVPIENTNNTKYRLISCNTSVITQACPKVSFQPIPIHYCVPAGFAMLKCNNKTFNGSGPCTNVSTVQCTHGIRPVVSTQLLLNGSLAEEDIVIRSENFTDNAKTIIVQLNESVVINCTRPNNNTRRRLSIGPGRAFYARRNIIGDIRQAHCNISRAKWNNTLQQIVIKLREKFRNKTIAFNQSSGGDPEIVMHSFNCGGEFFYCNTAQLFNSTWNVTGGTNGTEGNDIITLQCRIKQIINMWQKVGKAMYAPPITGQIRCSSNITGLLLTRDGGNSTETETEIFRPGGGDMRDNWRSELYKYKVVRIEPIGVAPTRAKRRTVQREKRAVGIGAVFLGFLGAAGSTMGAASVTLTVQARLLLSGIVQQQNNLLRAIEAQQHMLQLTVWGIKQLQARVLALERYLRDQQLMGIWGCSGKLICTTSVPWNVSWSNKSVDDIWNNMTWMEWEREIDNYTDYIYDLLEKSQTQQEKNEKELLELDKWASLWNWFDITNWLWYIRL

HIV-1 Env 89.6 gp120 = HIV-1 Env 89.6 gp120 (Human immunodeficiency virus type 1 group M subtype B, UniProt Q73372); assay: biochemical; format: binding, HIV-1 89.6
HIV-1 Env 89.6 gp120, sequence (Q73372 32-508): as the sequence (Q73372 32-508) above

sCD4 = target: T1, sCD4 (Homo sapiens, UniProt P01730); format: binding; settings: SPR
T1 construct: Soluble CD4 (sCD4) was produced by Progenics, Tarrytown, N.Y; purchased Progenics (provided by the Division of AIDS, NIAID, NIH)

Q: For “native CCR5: native CCR5 co-receptor, literature value”, which Kd [1] is on record?
A: The Kd was 500000 nM.

Q: With “WMEWDREINNYTSLIHSLIEESQNQLEKNEQELLEL [T649Q26L]” as the substance, how does the “binding to sCD4-gp140 surface (in words)” value [2] read?
A: Its value is “much higher binding; also recorded: marked binding”.

Q: And the “binding to sCD4-gp120 (in words)” value [3]?
A: The value was “specifically induced by sCD4”.

Q: What about the “binding to T8-gp140 surface (in words)” value [4] of the same substance?
A: The value was “no binding”.

Q: And the “binding to gp120 on T8 mab surface (in words)” value [5]?
A: The value was “neither HR-2 peptide bound”.

Q: For “KQIINMWQEVGKAMYACTRPNYNKRKRIHIGPGRAFYTTK [C4-V3MN]”, which “blocking of DP178 binding (in words)” value (A32-gp120 (89.6 gp120)) is on record?
A: The value was “strong blocking”.

Q: For IKQIINMWQKVGKAMYAPPIS [C4], which “mean % blocking of DP178 binding to 89.6 gp120” value (A32-gp120 (89.6 gp120); n=3) is on record?
A: The value was 27%.

Q: And the “effect on DP178 inhibition of syncytia formation (in words)” value [6]?
A: The value was “can reverse DP178 inhibition”.

Q: Which results are given for “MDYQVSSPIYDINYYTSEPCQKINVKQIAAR [CCR5-D1]”?
A: ka [7]: 9000 M⁻¹ s⁻¹; kd [7]: 0.00256 s⁻¹; Kd ([7]; read-out: apparent Kd): 280 nM; Kd [8]: 1000 nM; binding to cleaved gp140 (in words) ([8]; absence of CD4): Low levels of constitutive binding; kd (off-rate) ([8]; absence of CD4): 0.01 s⁻¹

Q: Which “binding to gp120 bound to CD4 or A32 (in words)” value (HIV-1 Env 89.6 gp120) does the source give for “NNLLRAIEAQQHLLQLTVWGIKQLQARILAVERYLKDQ [DP107]” here?
A: The value was “no binding was observed”.

Q: With “KQIINMWQEVGKAMYATRPNNNTRERLSIGPGRAFYARR [C4-V389.6]” as the substance, how does the “blocking of DP178 binding (in words)” value (A32-gp120 (89.6 gp120)) read?
A: Its value is “strong blocking”.

Q: Which results are given for “89.6 gp120: soluble gp120 envelope protein of HIV 89.6 primary isolate (Clade B)”?
A: off-rate (kd) (sCD4; immobilized CD4): 0.00011 s⁻¹; off-rate (sCD4; immobilized sCD4, preliminary studies): 1.1×10^−4 s^1; binding to sCD4 (in words) (sCD4; listed as HIV 89.6 gp120): most stable binding to sCD4; binding to sCD4 (in words) (sCD4; listed as HIV89.6 gp120): bound sCD4 most avidly

Q: For “89.6 gp140: HIV 89.6 gp140 envelope, about 50:50 cleaved and uncleaved”, which “binding to sCD4 (in words)” value (sCD4) is on record?
A: The value was “bound sCD4 well”.

Q: Which “blocking of DP178 binding (in words)” value (A32-gp120 (89.6 gp120)) does the source give for TRPNNNTRERLSIGPGRAFYARR [V3] here?
A: The value was “no significant blocking”.
